The text below walks through data of article PMC9025810, “Interaction of Antifungal Drugs with CYP3A- and OATP1B-Mediated Venetoclax Elimination” (Pharmaceutics, 2022).

Each structure is given as a SMILES string.

Data set [1] deals with T1, human CYP3A4 (Homo sapiens, UniProt P08684).
T1 construct: purchased Corning 456207
The experiment in a line: Venetoclax metabolism by human recombinant CYP3A4 supersomes. The data set is classed as in vitro ADME. The settings on record: 10 µM venetoclax, 40 nM CYP3A4 supersomes, 2 h. The procedure: The ability of human CYP3A4 to metabolize venetoclax was assessed using human CYP3A4 supersomes using standard procedures. Reactions were performed in a volume of 100 µL. […] The mixture was preincubated for 5 min at 37 °C before initiating the reaction by the addition of the NADPH regenerating system and incubating at 37 °C with continuous shaking (400 rpm). At 0 h and 2 h, a 20 µL aliquot was mixed with 20 µL methanol to terminate the reaction. The mixture was then vortexed and stored at −80 °C until analysis. Venetoclax was quantified using a validated UHPLC-MS/MS analytical method.

The target in data set [2] is T2, OATP1B1 (Homo sapiens, UniProt Q9Y6L6).
T2 sequence (Q9Y6L6 1-691): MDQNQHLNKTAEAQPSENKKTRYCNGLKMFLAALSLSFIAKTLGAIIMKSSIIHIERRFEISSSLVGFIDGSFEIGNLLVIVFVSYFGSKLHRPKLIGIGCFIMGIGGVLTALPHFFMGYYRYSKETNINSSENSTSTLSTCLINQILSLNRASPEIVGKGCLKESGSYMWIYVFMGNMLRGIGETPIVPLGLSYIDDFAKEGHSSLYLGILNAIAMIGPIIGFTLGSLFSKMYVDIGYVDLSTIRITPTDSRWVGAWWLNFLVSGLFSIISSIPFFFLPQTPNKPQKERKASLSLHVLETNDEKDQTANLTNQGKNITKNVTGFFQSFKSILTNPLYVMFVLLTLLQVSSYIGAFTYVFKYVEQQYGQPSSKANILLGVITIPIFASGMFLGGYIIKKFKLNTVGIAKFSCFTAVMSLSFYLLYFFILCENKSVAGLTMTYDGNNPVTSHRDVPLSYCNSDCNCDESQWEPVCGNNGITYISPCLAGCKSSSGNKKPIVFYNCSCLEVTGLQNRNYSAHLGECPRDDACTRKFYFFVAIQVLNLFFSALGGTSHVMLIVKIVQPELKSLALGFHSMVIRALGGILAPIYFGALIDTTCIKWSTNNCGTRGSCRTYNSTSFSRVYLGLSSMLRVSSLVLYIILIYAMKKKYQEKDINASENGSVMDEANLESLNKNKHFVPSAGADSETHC
The experiment in a line: Competitive counterflow assay with 8-acetoxy-trisulfopyrene. The format is cell-based. Also noted: expressed in transfected cells. As for the experimental part:
Competitive counterflow assays were performed with 8-acetoxy-trisulfopyrene, an activatable fluorogenic probe for OATP1B1, as described previously. In brief, cells expressing a vector or OATP1B1 were seeded in 96-well opaque plates in phenol-red free DMEM media with 10% FBS and induced with doxycycline for 24 h. On the day of the experiment, the media was removed, and the cells were washed three times with warm PBS. The cells were then incubated for 20 min at 37 °C with 100 µL of 5 µM 8-acetoxypyrene-1,3,6-trisulfonate uptake buffer (ACE; 125 mM NaCl, 4.8 mM KCl, 1.2 mM CaCl2, 1.2 mM KH2PO4, […], 25 mM 2-N-morpholino), ethanesulfonic acid, and 5.6 mM glucose, with the pH adjusted to 5.5). […] The fluorescence was measured at excitation and emission wavelengths of 460 nm and 510 nm, respectively, after 20 min of incubation to control for the number of cells.
The plates were incubated for 20 min at 37 °C. In the final step, the supernatant was removed, and the cells were washed three times with 200 µL ice-cold PBS to stop the reaction. PBS was then removed and 200 µL of 0.1 N NaOH was added to each well to normalize the pH. The fluorescence was measured as described above after another 20 min incubation at room temperature. The levels of cell dye were reported as a percent of the measurement from cells containing ACE alone.

The conditions of data set [3]: cited from earlier work.
For data set [4] the following is noted: plasma; cited from earlier work.

T1 sequence (P08684 whole entry): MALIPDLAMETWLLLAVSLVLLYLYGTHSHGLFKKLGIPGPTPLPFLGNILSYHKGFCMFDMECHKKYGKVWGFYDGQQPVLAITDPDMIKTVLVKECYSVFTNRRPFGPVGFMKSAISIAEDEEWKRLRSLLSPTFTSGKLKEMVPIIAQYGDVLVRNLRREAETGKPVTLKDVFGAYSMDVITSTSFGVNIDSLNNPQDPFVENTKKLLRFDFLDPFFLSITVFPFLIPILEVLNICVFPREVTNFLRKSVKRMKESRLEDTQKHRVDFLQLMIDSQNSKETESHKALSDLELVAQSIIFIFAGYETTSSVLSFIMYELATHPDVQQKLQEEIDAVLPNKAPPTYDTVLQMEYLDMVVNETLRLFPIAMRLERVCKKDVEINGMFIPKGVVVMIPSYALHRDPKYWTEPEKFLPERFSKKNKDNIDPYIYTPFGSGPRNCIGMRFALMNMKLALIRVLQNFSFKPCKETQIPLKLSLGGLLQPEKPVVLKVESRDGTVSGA

With `CC1(C)CCC(CN2CCN(c3ccc(C(=O)NS(=O)(=O)c4ccc(NCC5CCOCC5)c([N+](=O)[O-])c4)c(Oc4cnc5[nH]ccc5c4)c3)CC2)=C(c2ccc(Cl)cc2)C1` [Venetoclax], the “Amount of venetoclax in the reaction in the presence of ketoconazole” value in data set [1] (10 µM ketoconazole) was “nearly unchanged”. Besides, in data set [1] (vehicle (DMSO)), the “Reduction of the amount of venetoclax in the reaction” value turned out to be 40%. Further, the “Effect on fluorescence (cell dye level) in competitive counterflow” value in data set [2] (5 µM ACE, venetoclax 200 µM, cyclosporin A 10 µM, paraformaldehyde 0.5%, 20 min) is reported as “significantly decreased fluorescence”. Further, the “Actual unbound concentration of venetoclax in counterflow experiments” value in data set [2] (nominal concentration 200 µM) is under 10 µM. For the same compound, the “Variation in apparent oral clearance” value in data set [3] (at approved doses, patients) was about 15 fold. In data set [3] (humans), the “DDI between venetoclax and ketoconazole (increase in venetoclax exposure)” value is given as ~ 6 fold; the “Increase in systemic exposure to venetoclax with a single dose of rifampin” value is recorded as 2 fold. In addition, the Protein-bound in plasma in data set [4] is over 99%.
